Publication PMC9131077, “Cytosolic Nudix Hydrolase 1 Is Involved in Geranyl β-Primeveroside Production in Tea” (Frontiers in Plant Science, 2022)

Key:
Assay in all cases: LC-MS/MS (MRM) of product GP
Type in all cases: biochemical
CsNUDX1-cyto = target: T1, CsNUDX1-cyto (Camellia sinensis, UniProt A0A4S4EYR7)
T1 construct: gene TEA_005538; full length, 156 residues; E. coli BL21 (DE3) Rosetta, pET15b, N-terminal His-tag, tested with and without tag

AtNUDX1 = target: T2, AtNUDX1 (Arabidopsis thaliana, UniProt Q9CA40); settings: hydrolysed to GP; His-tagged positive control
T2 construct: gene NUDT1; E. coli BL21 (DE3) Rosetta, His-tag kept
T2 sequence (Q9CA40 whole entry): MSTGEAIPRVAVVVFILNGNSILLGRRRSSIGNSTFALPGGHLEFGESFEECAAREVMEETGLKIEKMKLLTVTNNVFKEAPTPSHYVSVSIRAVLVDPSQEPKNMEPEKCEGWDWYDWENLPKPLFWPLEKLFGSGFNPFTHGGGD

CsNUDX1-chlo-Δ70 = target: T3, CsNUDX1-chlo-Δ70 (Camellia sinensis, UniProt A0A4S4EZL9); settings: hydrolysed to GP; transit peptide removed
T3 construct: gene TEA_000488; N-terminal 70-residue transit peptide removed from the 220-residue protein; E. coli BL21 (DE3) Rosetta, pET15b, N-terminal His-tag
T3 sequence (A0A4S4EZL9 entry or part of it, stated change not applied): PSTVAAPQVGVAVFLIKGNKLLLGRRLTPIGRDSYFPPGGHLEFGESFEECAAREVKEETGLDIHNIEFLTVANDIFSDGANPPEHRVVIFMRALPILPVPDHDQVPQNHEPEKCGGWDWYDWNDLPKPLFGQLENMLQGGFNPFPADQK

T1 sequence (A0A4S4EYR7 1-156): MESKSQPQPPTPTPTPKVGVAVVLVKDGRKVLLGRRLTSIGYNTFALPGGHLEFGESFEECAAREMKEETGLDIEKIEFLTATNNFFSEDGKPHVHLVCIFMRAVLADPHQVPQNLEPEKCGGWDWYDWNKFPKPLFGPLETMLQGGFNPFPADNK

Compound | LC-MS/MS (MRM) of product GP (CsNUDX1-cyto; hydrolysed to GP, with and without His-tag) | LC-MS/MS (MRM) of product GP (AtNUDX1) | LC-MS/MS (MRM) of product GP (CsNUDX1-chlo-Δ70) | LC-MS/MS (MRM) of product GP (CsNUDX1-cyto; from GPP)
CC(C)=CCC/C(C)=C/COP(=O)(O)OP(=O)(O)O [geranyl pyrophosphate] | CsNUDX1-cyto possessed a stronger GPP to GP hydrolysis activity than the Arabidopsis AtNUDX1 | stronger GPP to GP hydrolysis activity than the Arabidopsis AtNUDX1 | exhibited an increased activity compared to the full length CsNUDX1-chlo | –
CC(C)=CCC/C(C)=C/COP(=O)(O)O [geranyl monophosphate] | – | – | – | GP was verified in vitro as the direct chemical product of CsNUDX1-cyto
